Measured values: patent US20260108484A1, “TREATMENT OF NEUROPATHIC PAIN IN CANINES” ([…] COMPANY, priority 2022, published 2026)

Legend:
[1] = tested on: dogs with CLM/SM (neuropathic pain); assay: Pilot study and validation of the Questionnaire (CHASE score) in CLM/SM dogs; assay type: in vivo, dog
Experimental: Please think about how your dog has behaved over the past week and use the scale to tell us how well the phrases describe your dog or what he/she is doing.
Summary values for untransformed and unweighted scores across the five final questions are presented below.
Intervention by a board-certified neurologist and prescription of pregabalin at 5-10 mg/kg twice daily relieved clinical signs and reduced CHASE scores to within the normal range, indicating responsiveness of the questionnaire to standard-of-care medical treatment. […] Using the Questionnaire to solicit owner feedback on disease severity and its impacts on affect and quality of life in this manner, owners and the veterinary neurologist concurred on treatment effects in this 100% of cases. This is to be expected given the potency of pregabalin in the treatment of neuropathic pain; however, no owner assessment tool has ever been reported to detect said effects so sensitively. For example, in a randomized controlled study by Thofner et al. (2020), even the very high dose range of 13 to 19 mg/kg pregabalin yielded concurrence between veterinarian and owner in only 52% of assessments of dogs with CLM/SM.

[2] = tested on: CKCS symptomatic for CLM/SM; conditions: cited from earlier work
[3] = tested on: dogs with CLM/SM; conditions: affected dogs, placebo-controlled treatment trial; cited from earlier work
[4] = tested on: voltage-gated calcium channel α2δ subunits; conditions: cited from earlier work

## CC(C)C[C@H](CN)CC(=O)O [pregabalin]
[1]; 8 treated dogs, pregabalin 5-10 mg/kg twice daily
  treated dogs exhibiting improvements of at least 5 points: 100%
[1]; Treated CLM/SM dogs, n=8, untransformed and unweighted scores across the five final questions, pregabalin 5-10 mg/kg twice daily
  Questionnaire (CHASE) score, Mean: 4.4
[1]; each of the 8 treated dogs, pregabalin 5-10 mg/kg twice daily
  improvements in symptom severity on the Questionnaire: at least 5 points
[1]; equivalent to improvement of at least 5 points on the Questionnaire
  effect size: ≥ 1.04
[2]; CKCS symptomatic for CLM/SM, crossover placebo-controlled
  effect size: 0.45
[2]; liquid formulation of pregabalin, placebo phase 4.24
  numerical rating scale (NRS) mean score during treatment: 3.17 units
[3]
  phantom scratching: effectively reduce phantom scratching
[4]
  potency and binding affinity compared with gabapentin: better potency and binding affinity than gabapentin
